Values of other authors as cited in US20260174683A1, “CHEWABLE COMPOSITION COMPRISING A GUMMY MATRIX AND COMPRISING MELATONIN, SODIUM ALGINATE, AND CALCIUM LACTATE” (S.I.I.T. S.R.L.-SERVIZIO INTERNAZIONALE IMBALLAGGI …, priority 2022, published 2026).

SMILES | pH of 5% solution in water
CC(O)C(=O)[O-].CC(O)C(=O)[O-].[Ca+2] (centres unmarked) [calcium lactate] | 6-8
CC(O)C(=O)[O-].CC(O)C(=O)[O-].[Mg+2] (centres unmarked) [Magnesium lactate, magnesium lactate] | 6.5-8.5
